The values that follow come from ChEMBL document CHEMBL4373724, “An overview of recent progress in siderophore-antibiotic conjugates” (2019).

In general, MIC refers to the lowest concentration that inhibits growth of the organism.

In brackets after ≈: the same amount, converted by molar mass.

Type in all cases: functional
For assay [1], the system named is Staphylococcus aureus. The experiment in a line: Antimicrobial activity against Staphylococcus aureus X1.1 under iron-deficient condition by broth microdilution method. Background: Broth dilution looks for growth in wells or tubes with falling amounts of substance.
Assay [2] concerns Escherichia coli. Nature of the assay: Antimicrobial activity against Escherichia coli EC14 under iron-deficient condition by broth microdilution method.
Assay [3] concerns Pseudomonas aeruginosa. The experiment in a line: Antimicrobial activity against Pseudomonas aeruginosa X620 under iron-deficient condition by broth microdilution method.
Assay [4] relates to Pseudomonas aeruginosa. Nature of the assay: Antimicrobial activity against Pseudomonas aeruginosa X621 under iron-deficient condition by broth microdilution method.
In assay [5] the test system is Staphylococcus aureus. The experiment in a line: Antimicrobial activity against Staphylococcus aureus X1.1 under iron-sufficient condition by broth microdilution method.
In assay [6] the test system is Micrococcus luteus. Nature of the assay: Antimicrobial activity against Micrococcus luteus under iron-deficient condition by broth microdilution method.
The subject of assay [7] is Micrococcus luteus. The experiment in a line: Antimicrobial activity against Micrococcus luteus under iron-sufficient condition by broth microdilution method.
The subject of assay [8] is Pseudomonas aeruginosa. The experiment in a line: Antimicrobial activity against Pseudomonas aeruginosa X621 under iron-sufficient condition by broth microdilution method.
The test system of assay [9] is Pseudomonas aeruginosa. Nature of the assay: Antimicrobial activity against Pseudomonas aeruginosa X620 under iron-sufficient condition by broth microdilution method.
The test system of assay [10] is Escherichia coli. Nature of the assay: Antimicrobial activity against Escherichia coli EC14 under iron-sufficient condition by broth microdilution method.
Assay [11] concerns Escherichia coli. The experiment in a line: Antimicrobial activity against Escherichia coli X580 under iron-deficient condition by broth microdilution method.
The subject of assay [12] is Escherichia coli. Nature of the assay: Antimicrobial activity against Escherichia coli X580 under iron-sufficient condition by broth microdilution method.
Assay [13] deals with Staphylococcus aureus. The experiment in a line: Antimicrobial activity against Staphylococcus aureus X1.1.
The test system of assay [14] is Staphylococcus aureus. The experiment in a line: Antimicrobial activity against Staphylococcus aureus V41.
For another assay, the system named is Streptococcus pneumoniae. The experiment in a line: Antimicrobial activity against Streptococcus pneumoniae PARK.
The next assay relates to Streptococcus. Nature of the assay: Antimicrobial activity against Streptococcus AC283.
Assay [15] has as its system Mycolicibacterium smegmatis. Nature of the assay: Antitubercular activity against Mycobacterium smegmatis.
Assay [16] has as its system Mycobacterium tuberculosis. Nature of the assay: Antitubercular activity against Mycobacterium tuberculosis H37Rv.

As for `CN[C@H](CC(C)C)C(=O)N[C@H]1C(=O)N[C@@H](CC(N)=O)C(=O)N[C@H]2C(=O)N[C@H]3C(=O)N[C@H](C(=O)N[C@H](C(=O)O)c4cc(O)cc(O)c4-c4cc3ccc4O)[C@H](O)c3ccc(c(Cl)c3)Oc3cc2cc(c3O[C@@H]2O[C@H](CO)[C@@H](O)[C@H](O)[C@H]2O[C@H]2C[C@](C)(NC(=O)CCC(=O)N(O)CCCCCNC(=O)CCC(=O)N(CCCCNC(=O)c3cccc(O)c3O)CCCNC(=O)c3cccc(O)c3O)[C@H](O)[C@H](C)O2)Oc2ccc(cc2Cl)[C@H]1O`, the MIC with Staphylococcus aureus [1] was 8 µM (≈ 17.2 µg/mL); in the assay on Escherichia coli [2] it was more than 128 µM; in the assay on Pseudomonas aeruginosa [3], more than 128 µM; in the assay on Pseudomonas aeruginosa [4], more than 128 µM; with Staphylococcus aureus [5], 8 µM (≈ 17.2 µg/mL); in the assay with Micrococcus luteus [6], 16 µM (≈ 34.4 µg/mL). Further, the minimum inhibitory concentration (MIC) with Micrococcus luteus [7] is 16 µM (≈ 34.4 µg/mL); with Pseudomonas aeruginosa [8], more than 128 µM; in the assay on Pseudomonas aeruginosa [9], more than 128 µM; in the assay on Escherichia coli [10], more than 128 µM; against Escherichia coli [11], 128 µM (≈ 275 µg/mL); with Escherichia coli [12] it was 32 µM (≈ 68.8 µg/mL).
As for `O=C(CCC(=O)N(CCCCNC(=O)c1cccc(O)c1O)CCCNC(=O)c1cccc(O)c1O)N[C@@H]1C(=O)N2C(C(=O)O)=C(Cl)CC[C@H]12`, the MIC against Staphylococcus aureus [13] turned out to be 64 µg/mL (≈ 89.4 µM); against Staphylococcus aureus [14], 64 µg/mL (≈ 89.4 µM); with Streptococcus pneumoniae, 64 µg/mL (≈ 89.4 µM); against Streptococcus, 16 µg/mL (≈ 22.3 µM).
Regarding `CN[C@H](CC(C)C)C(=O)N[C@H]1C(=O)N[C@@H](CC(N)=O)C(=O)N[C@H]2C(=O)N[C@H]3C(=O)N[C@H](C(=O)N[C@H](C(=O)O)c4cc(O)cc(O)c4-c4cc3ccc4O)[C@H](O)c3ccc(c(Cl)c3)Oc3cc2cc(c3O[C@@H]2O[C@H](CO)[C@@H](O)[C@H](O)[C@H]2O[C@H]2C[C@](C)(NC(=O)CCC(=O)N(CCCCNC(=O)c3cccc(O)c3O)CCCNC(=O)c3cccc(O)c3O)[C@H](O)[C@H](C)O2)Oc2ccc(cc2Cl)[C@H]1O`, the MIC against Staphylococcus aureus [1] was 32 µM (≈ 62.4 µg/mL); in the assay on Escherichia coli [2] it was more than 128 µM; with Pseudomonas aeruginosa [3] it was more than 128 µM; in the assay with Pseudomonas aeruginosa [4] it was 32 µM (≈ 62.4 µg/mL); against Staphylococcus aureus [5], 32 µM (≈ 62.4 µg/mL); against Micrococcus luteus [6] it was 32 µM (≈ 62.4 µg/mL). Moreover, the minimal inhibitory concentration (MIC) in the assay on Micrococcus luteus [7] is 16 µM (≈ 31.2 µg/mL); against Pseudomonas aeruginosa [8], more than 128 µM; with Pseudomonas aeruginosa [9], more than 128 µM; against Escherichia coli [10] it was more than 128 µM; against Escherichia coli [11], 128 µM (≈ 249 µg/mL); against Escherichia coli [12] it was more than 128 µM.
In the case of `CCCCCCCCCCCCCCCCC(=O)N(O)CCCC[C@H](NC(=O)[C@@H]1COC(c2ccccc2O)=N1)C(=O)NC[C@H](NC(=O)CCCO[C@H]1O[C@@H]2O[C@@]3(C)CC[C@H]4[C@H](C)CC[C@@H]([C@H]1C)[C@@]24OO3)C(=O)N[C@H]1CCCCN(O)C1=O`, the MIC in assay [15] was more than 5 µg/mL; in [16], 0.39 µg/mL (≈ 0.334 µM).
`CN[C@H](CC(C)C)C(=O)N[C@H]1C(=O)N[C@@H](CC(N)=O)C(=O)N[C@H]2C(=O)N[C@H]3C(=O)N[C@H](C(=O)N[C@H](C(=O)O)c4cc(O)cc(O)c4-c4cc3ccc4O)[C@H](O)c3ccc(c(Cl)c3)Oc3cc2cc(c3O[C@@H]2O[C@H](CO)[C@@H](O)[C@H](O)[C@H]2O[C@H]2C[C@](C)(N)[C@H](O)[C@H](C)O2)Oc2ccc(cc2Cl)[C@H]1O` [VANCOMYCIN]: the MIC was 0.5 to 4 µM (≈ 0.725 to 5.8 µg/mL) in the assay on Staphylococcus aureus [1]; more than 128 µM against Escherichia coli [2]; more than 128 µM in the assay on Pseudomonas aeruginosa [3]; more than 128 µM with Pseudomonas aeruginosa [4]; 1 to 4 µM (≈ 1.45 to 5.8 µg/mL) against Staphylococcus aureus [5]; 1 to 4 µM (≈ 1.45 to 5.8 µg/mL) in the assay with Micrococcus luteus [6]. In addition, the minimum inhibitory concentration (MIC) against Micrococcus luteus [7] is 2 to 4 µM (≈ 2.9 to 5.8 µg/mL); with Pseudomonas aeruginosa [8] it was more than 128 µM; with Pseudomonas aeruginosa [9], more than 128 µM; against Escherichia coli [10] it was more than 128 µM; with Escherichia coli [11], 32 µM (≈ 46.4 µg/mL); against Escherichia coli [12] it was 32 to 64 µM (≈ 46.4 to 92.8 µg/mL).
